Measurements published in PubChem BioAssay AID1259407 (Chemical Carcinogenesis Research Information System (CCRIS), 2018).
Calls of active or inactive are those of the source. The rule behind the calls is not given here.

System: CCRIS mutagenicity, Ames/micronucleus/aberration tests
Test: CCRIS mutagenicity studies
[1] = Test System: AMES SALMONELLA TYPHIMURIUM, Strain/Indicator: TA98, Metabolic Activation: NONE, Method: PREINCUBATION

SMILES: c1ccc2cc3ccccc3cc2c1
- mutagenic call (End Point: In vitro chromosomal aberrations, Test System: Chinese hamster lung (CHL/IU) cells, Metabolic Activation: Rat, Liver, S9, Phenobarbital and 5,6-benzoflavone): active; positive (structural changes and ploidy). weak response for ploidy.
- mutagenic call (Test System: AMES SALMONELLA TYPHIMURIUM, Strain/Indicator: TA97, Metabolic Activation: NONE, Method: STANDARD PLATE): inactive; negative
- mutagenic call (Test System: AMES SALMONELLA TYPHIMURIUM, Strain/Indicator: TA97, Metabolic Activation: RAT, LIVER, S-9, PCB, Method: STANDARD PLATE): active; positive
- mutagenic call [1]: inactive; negative
- mutagenic call (Test System: AMES SALMONELLA TYPHIMURIUM, Strain/Indicator: TA98, Metabolic Activation: NONE, Method: STANDARD PLATE): inactive; negative
- mutagenic call (Test System: AMES SALMONELLA TYPHIMURIUM, Strain/Indicator: TA98, Metabolic Activation: RAT LIVER S-9, PHENOBARBITAL AND BETA-NAPHTHOFLAVONE, Method: PREINCUBATION): inactive; negative
- mutagenic call (Test System: AMES SALMONELLA TYPHIMURIUM, Strain/Indicator: TA98, Metabolic Activation: RAT, LIVER, S-9, AROCLOR 1254, Method: STANDARD PLATE): inactive; negative
- mutagenic call (Test System: AMES SALMONELLA TYPHIMURIUM, Strain/Indicator: TA98, Metabolic Activation: RAT, LIVER, S-9, PCB, Method: STANDARD PLATE): inactive; negative
- mutagenic call (Test System: AMES SALMONELLA TYPHIMURIUM, Strain/Indicator: TA100, Metabolic Activation: NONE, Method: STANDARD PLATE): inactive; negative
- mutagenic call (Test System: AMES SALMONELLA TYPHIMURIUM, Strain/Indicator: TA100, Metabolic Activation: RAT LIVER S-9, PHENOBARBITAL AND BETA-NAPHTHOFLAVONE, Method: PREINCUBATION): inactive; negative
- mutagenic call (Test System: AMES SALMONELLA TYPHIMURIUM, Strain/Indicator: TA100, Metabolic Activation: RAT, LIVER, S-9, AROCLOR 1254, Method: STANDARD PLATE): inactive; negative
- mutagenic call (Test System: AMES SALMONELLA TYPHIMURIUM, Strain/Indicator: TA100, Metabolic Activation: RAT, LIVER, S-9, PCB, Method: STANDARD PLATE): inactive; negative
- mutagenic call (Test System: AMES SALMONELLA TYPHIMURIUM, Strain/Indicator: TA1535, Metabolic Activation: NONE, Method: PREINCUBATION): inactive; negative
- mutagenic call (Test System: AMES SALMONELLA TYPHIMURIUM, Strain/Indicator: TA1535, Metabolic Activation: RAT LIVER S-9, PHENOBARBITAL AND BETA-NAPHTHOFLAVONE, Method: PREINCUBATION): inactive; negative
- mutagenic call (Test System: AMES SALMONELLA TYPHIMURIUM, Strain/Indicator: TA1537, Metabolic Activation: NONE, Method: PREINCUBATION): inactive; negative
- mutagenic call (Test System: AMES SALMONELLA TYPHIMURIUM, Strain/Indicator: TA1537, Metabolic Activation: RAT LIVER S-9, PHENOBARBITAL AND BETA-NAPHTHOFLAVONE, Method: PREINCUBATION): inactive; negative
- mutagenic call (Test System: AMES SALMONELLA TYPHIMURIUM, Strain/Indicator: TA1538, Metabolic Activation: NONE, Method: PREINCUBATION): inactive; negative
- mutagenic call (Test System: AMES SALMONELLA TYPHIMURIUM, Strain/Indicator: TA1538, Metabolic Activation: RAT LIVER S-9, PHENOBARBITAL AND BETA-NAPHTHOFLAVONE, Method: PREINCUBATION): inactive; negative
- mutagenic call (Test System: E. COLI, Strain/Indicator: WP2 UVRA, Metabolic Activation: HAMSTER, LIVER, S-9, AROCLOR 1254, Method: STANDARD PLATE): inactive; negative
- mutagenic call (Test System: E. COLI, Strain/Indicator: WP2 UVRA, Metabolic Activation: HAMSTER, LIVER, S-9, Method: STANDARD PLATE): inactive; negative
- mutagenic call (Test System: E. COLI, Strain/Indicator: WP2 UVRA, Metabolic Activation: MOUSE, LIVER, S-9, AROCLOR 1254, Method: STANDARD PLATE): inactive; negative
- mutagenic call (Test System: E. COLI, Strain/Indicator: WP2 UVRA, Metabolic Activation: MOUSE, LIVER, S-9, Method: STANDARD PLATE): inactive; negative
- mutagenic call (Test System: E. COLI, Strain/Indicator: WP2 UVRA, Metabolic Activation: NONE, Method: STANDARD PLATE): inactive; negative
- mutagenic call (Test System: E. COLI, Strain/Indicator: WP2 UVRA, Metabolic Activation: RAT, LIVER, S-9, AROCLOR 1254, Method: STANDARD PLATE): inactive; negative
- mutagenic call (Test System: E. COLI, Strain/Indicator: WP2 UVRA, Metabolic Activation: RAT, LIVER, S-9, Method: STANDARD PLATE): inactive; negative
- mutagenic call (Test System: E.COLI, Strain/Indicator: WP2UVRA, Metabolic Activation: NONE, Method: PREINCUBATION): inactive; negative
- mutagenic call (Test System: E.COLI, Strain/Indicator: WP2UVRA, Metabolic Activation: RAT LIVER S-9, PHENOBARBITAL AND BETA-NAPHTHOFLAVONE, Method: PREINCUBATION): inactive; negative
- mutagenic call (Test System: MOUSE LYMPHOMA, Strain/Indicator: L5178Y (TK+/TK-), Metabolic Activation: NONE, Method: SUSPENSION/PLATE): inactive; negative
- mutagenic call (Test System: MOUSE LYMPHOMA, Strain/Indicator: L5178Y (TK+/TK-), Metabolic Activation: RAT, LIVER, S-9, AROCLOR 1254, Method: SUSPENSION/PLATE): active; positive
- mutagenic call (Test System: MOUSE LYMPHOMA, Strain/Indicator: L5178Y (TK+/TK-), Metabolic Activation: RAT, LIVER, S-9, Method: SUSPENSION/PLATE): active; positive

SMILES: C=C1C[C@@]23CC[C@H]4[C@@](C)(CCC[C@@]4(C)C(=O)O)[C@@H]2CC[C@]1(O[C@@H]1O[C@H](CO)[C@@H](O)[C@H](O)[C@H]1O)C3
- mutagenic call (Test System: AMES SALMONELLA TYPHIMURIUM, Strain/Indicator: TM677, Metabolic Activation: RAT, LIVER, S-9, AROCLOR 1254, Method: PREINCUBATION): active; positive

SMILES: Nc1ccc(Oc2ccc(N)c(Cl)c2)cc1Cl
- mutagenic call [1]: inactive; negative
- mutagenic call (Test System: AMES SALMONELLA TYPHIMURIUM, Strain/Indicator: TA98, Metabolic Activation: RAT, LIVER, S-9, PCB, Method: PREINCUBATION): active; positive
- mutagenic call (Test System: AMES SALMONELLA TYPHIMURIUM, Strain/Indicator: TA100, Metabolic Activation: NONE, Method: PREINCUBATION): inactive; negative
- mutagenic call (Test System: AMES SALMONELLA TYPHIMURIUM, Strain/Indicator: TA100, Metabolic Activation: RAT, LIVER, S-9, PCB, Method: PREINCUBATION): active; positive

SMILES: C1CCC2=NCCCN2CC1
- mutagenic call (Test System: Mouse lymphoma, Strain/Indicator: L5178Y (tk+/tk-), Metabolic Activation: None, Method: Suspension/plate): inactive; negative
- mutagenic call (Test System: Mouse lymphoma, Strain/Indicator: L5178Y (tk+/tk-), Metabolic Activation: Rat, Liver, S-9, Aroclor 1254, Method: Suspension/plate): inactive; negative

SMILES: CNC(=O)Oc1cccc2c1OC(C)(C)C2=O
- mutagenic call (End Point: IN VIVO MICRONUCLEUS, Test System: BONE MARROW POLYCHROMATIC ERYTHROCYTES, Species: MOUSE, Strain/Sex: KM/MALE, FEMALE, Route: IP INJECTION): inactive; negative
